Data set [1] can be described thus: Blood cell partitioning (blood to plasma ratio). The class given is in vitro ADME. Conditions: fresh whole blood, 37 °C. Here is the method:
The blood to plasma ratio was determined using the method shown in supplemental information (Supplemental Methods). […] The blood cell partitioning was calculated as follows. […] Plasma, liver microsomes and hepatocyte binding by RED device The stability of the compounds in plasma, liver microsomes and hepatocyte were studied to ensure the reliability of the binding data. Hepatocyte was deactivated by leaving them on a bench for 2 days and going through a freeze thaw cycle thereafter.

The next data set in a line: in vitro. Conditions: human, Caco-2.
Data set [2] can be described thus: Brain distribution by brain slices experiment. The data set is classed as in vitro ADME, mouse. Conditions: mouse brain slices, positive controls. Here is the method: The unbound volume of distribution in the brain (V u, brain) was determined in fresh brain slices using the protocol published by Friden et al.[25].
Data set [3] can be described thus: Plasma binding by RED device. Note: tested at 0.4 µM. The data set is classed as in vitro ADME, mouse. The following applies: mouse plasma, RED device, 4 h, 37 °C. The procedure: (§1) Nonspecific binding in plasma (f u, plasma), microsomes (f u, mic) and hepatocyte (f u, hep) were determined using the method seen in supplemental information (Supplemental Methods). […]
(§2) All validation compounds were incubated at 37 °C over 4 h, and in triplicate. For […]
(§3) plasma stability, 10 mM DMSO solutions of SLM and SLOH were diluted to 40 µM (10% DMSO). Plasma […]
(§4) shaking water bath (60 oscillations/min approx.). The assay was started by addition of 6 µL aliquots to […]
(§5) the plasma (final DMSO incubation concentration 0.1%). […]
(§6) MS/MS. Natural logarithm of peak area ratios (compound peak area normalized by IS peak area) were plotted against time and half-life calculated. […]
(§7) placed into the sample chamber (indicated by the red ring) with 400 µL of PBS into the adjacent chamber.
(§8) The plate was sealed with a self-adhesive lid and incubated at 37 °C on an orbital shaker (1.5 g approx.) for 4 h. Aliquots (100 µL) were removed from each side of the insert, and analyzed after protein precipitation using 4 folds acetonitrile (ACN) containing berberine chloride as internal standard (IS) by LC-MS/MS (Analytical me thod seen below). The experimental procedure outlined in the Thermo Scientific RED device systems brochure was adopted in the present study . […]

Data set [4] in a line: Plasma binding by RED device. Note: tested at 0.4 µM. The following applies: human plasma, RED device, 4 h, 37 °C. The data set is classed as in vitro ADME, human. Here is the method:
as §1, §2, §3, §4, §5, §6, §7, §8

The test system of another data set is Caco-2 cells. The data set is described as follows: In vitro permeability study using Caco-2 cell. Conditions: Caco-2, 1 μM input, positive controls.
For a further data set, the target named is T1, OATP2B1 (Homo sapiens, UniProt O94956).
T1 sequence (O94956 1-709): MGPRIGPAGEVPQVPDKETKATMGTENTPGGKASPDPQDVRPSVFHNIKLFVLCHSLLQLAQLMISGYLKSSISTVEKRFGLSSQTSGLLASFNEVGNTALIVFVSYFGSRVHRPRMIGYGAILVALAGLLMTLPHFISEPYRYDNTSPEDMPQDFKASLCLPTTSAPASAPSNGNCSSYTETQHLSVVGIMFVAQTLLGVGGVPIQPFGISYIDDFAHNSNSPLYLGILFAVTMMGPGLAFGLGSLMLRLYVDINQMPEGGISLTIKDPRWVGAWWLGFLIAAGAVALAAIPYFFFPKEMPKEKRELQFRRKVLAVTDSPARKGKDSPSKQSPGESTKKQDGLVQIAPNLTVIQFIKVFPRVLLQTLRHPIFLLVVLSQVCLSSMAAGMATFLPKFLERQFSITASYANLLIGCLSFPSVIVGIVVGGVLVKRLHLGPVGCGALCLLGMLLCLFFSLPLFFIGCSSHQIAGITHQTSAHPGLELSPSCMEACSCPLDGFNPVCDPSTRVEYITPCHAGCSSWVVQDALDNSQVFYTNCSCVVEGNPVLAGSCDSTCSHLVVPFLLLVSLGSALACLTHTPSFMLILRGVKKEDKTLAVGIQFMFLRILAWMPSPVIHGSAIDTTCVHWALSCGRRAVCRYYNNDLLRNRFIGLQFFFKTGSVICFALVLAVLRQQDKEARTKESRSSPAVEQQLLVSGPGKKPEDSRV
The data set is described as follows: OATP substrate identification, uptake in stably transfected HEK293 cells. The following applies: positive control. The procedure: (§9) Daily changes of medium were performed and on the second day after seeding using medium containing 10 mM sodium butyrate.
(§10) Stably transfected HEK cells and control vector-transfected HEK293 cells were first washed (3 × 1 mL) with prewarmed HBSS (pH 7.4) and then were incubated with 250 μL of HBSS containing compounds at concentrations of 1 and 10 μM. Cells were incubated for 10 mins at 37 °C for all experiments. After incubation, uptake was stopped by aspirating the incubation solution and washing each well 3 times with 200 μL of ice-old HBSS. The cells were lysed in 150 μL of 1 M NaOH for 30 mins, and then neutralized by adding equal volumes of 1 M HCl.
(§11) The following equations (3 and 4) were used to calculate the uptake rates (U, pmol/mg/min) and the OATP1B1, OATP1B3, OATP2B1 and OATP1A2 uptake ratio (UR):3 U=Clysate/P×T 4 UR=UOATP1B1/1B3/2B1/1A2/UHEK293−MOCK where C lysate is the compound concentration in cell lysates. P is the protein concentration in cell lysates. T is the incubation time. U OATP1B1/1B3/2B1/1A2 is the uptake rate obtained in HEK293 stably transfected OATP1B1, OATP1B3, OATP2B1 or OATP1A2 transportation. U HEK293-MOCK is the uptake rate obtained in control vector-transfected HEK293 transportation.

The target in a further data set is T2, OATP1A2 (Homo sapiens, UniProt P46721).
T2 sequence (P46721 1-670): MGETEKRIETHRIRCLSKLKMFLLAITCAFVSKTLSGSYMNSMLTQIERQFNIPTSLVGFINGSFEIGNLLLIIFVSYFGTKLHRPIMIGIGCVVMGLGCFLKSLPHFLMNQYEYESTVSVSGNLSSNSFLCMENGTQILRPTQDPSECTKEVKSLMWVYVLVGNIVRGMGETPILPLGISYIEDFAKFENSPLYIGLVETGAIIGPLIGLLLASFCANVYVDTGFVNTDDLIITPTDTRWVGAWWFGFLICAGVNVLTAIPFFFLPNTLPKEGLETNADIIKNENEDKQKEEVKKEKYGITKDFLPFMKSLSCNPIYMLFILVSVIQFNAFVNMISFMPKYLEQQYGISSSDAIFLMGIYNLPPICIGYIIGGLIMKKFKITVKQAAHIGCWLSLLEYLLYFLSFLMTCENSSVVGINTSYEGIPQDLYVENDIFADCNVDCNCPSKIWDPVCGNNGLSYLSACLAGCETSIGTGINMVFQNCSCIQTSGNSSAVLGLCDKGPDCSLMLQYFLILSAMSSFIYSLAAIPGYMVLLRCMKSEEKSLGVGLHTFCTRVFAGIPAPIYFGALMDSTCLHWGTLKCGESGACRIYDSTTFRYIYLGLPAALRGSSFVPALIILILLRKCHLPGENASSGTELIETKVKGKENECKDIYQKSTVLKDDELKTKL
The data set is described as above. Here is the method: as §9, §10, §11

In another data set the target is T3, OATP1B1 (Homo sapiens, UniProt Q9Y6L6).
T3 sequence (Q9Y6L6 1-691): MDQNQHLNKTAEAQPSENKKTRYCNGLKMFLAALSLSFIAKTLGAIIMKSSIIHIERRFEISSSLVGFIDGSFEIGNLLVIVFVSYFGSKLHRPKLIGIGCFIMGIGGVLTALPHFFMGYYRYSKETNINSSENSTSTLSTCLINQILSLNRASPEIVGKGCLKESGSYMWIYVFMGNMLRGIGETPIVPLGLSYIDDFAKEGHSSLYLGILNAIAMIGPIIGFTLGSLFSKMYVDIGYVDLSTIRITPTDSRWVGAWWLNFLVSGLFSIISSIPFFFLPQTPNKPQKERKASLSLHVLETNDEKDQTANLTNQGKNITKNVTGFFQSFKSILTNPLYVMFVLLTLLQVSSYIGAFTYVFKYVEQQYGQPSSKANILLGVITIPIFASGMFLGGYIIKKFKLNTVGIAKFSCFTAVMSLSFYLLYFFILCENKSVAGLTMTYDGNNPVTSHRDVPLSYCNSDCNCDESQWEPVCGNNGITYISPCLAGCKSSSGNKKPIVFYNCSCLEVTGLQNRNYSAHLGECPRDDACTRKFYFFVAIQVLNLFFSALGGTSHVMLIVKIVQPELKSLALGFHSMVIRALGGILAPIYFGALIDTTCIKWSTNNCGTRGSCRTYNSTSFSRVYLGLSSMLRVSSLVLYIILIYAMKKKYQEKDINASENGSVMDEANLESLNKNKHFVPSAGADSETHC
Described as above. Here is the method: as §9, §10, §11

Another data set concerns the target T4, OATP1B3 (Homo sapiens, UniProt Q9NPD5).
T4 sequence (Q9NPD5 1-702): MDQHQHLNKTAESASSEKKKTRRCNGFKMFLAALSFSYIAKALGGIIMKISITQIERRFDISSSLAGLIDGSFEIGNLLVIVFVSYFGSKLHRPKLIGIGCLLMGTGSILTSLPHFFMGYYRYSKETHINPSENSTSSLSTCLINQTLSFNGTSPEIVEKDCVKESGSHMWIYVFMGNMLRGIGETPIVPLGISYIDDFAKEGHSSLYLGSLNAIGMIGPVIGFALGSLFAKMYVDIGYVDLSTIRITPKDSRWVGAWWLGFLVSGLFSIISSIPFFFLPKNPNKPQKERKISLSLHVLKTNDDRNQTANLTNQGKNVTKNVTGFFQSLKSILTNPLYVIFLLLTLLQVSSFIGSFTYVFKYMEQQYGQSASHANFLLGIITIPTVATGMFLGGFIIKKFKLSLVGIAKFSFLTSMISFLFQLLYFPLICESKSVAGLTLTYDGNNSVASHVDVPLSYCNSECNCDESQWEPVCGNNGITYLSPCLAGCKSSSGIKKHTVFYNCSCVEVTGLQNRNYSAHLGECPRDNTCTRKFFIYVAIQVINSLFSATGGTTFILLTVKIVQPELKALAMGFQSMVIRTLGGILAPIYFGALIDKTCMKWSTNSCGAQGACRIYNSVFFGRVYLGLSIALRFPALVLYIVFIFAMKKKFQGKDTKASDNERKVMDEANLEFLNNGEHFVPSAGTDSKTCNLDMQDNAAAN
The description is as above. Here is the method:
as §9, §10, §11

Each structure is given as a SMILES string.

`NS(=O)(=O)c1cc(C2(O)NC(=O)c3ccccc32)ccc1Cl` (stereo not shown) [Chlorthalidone, reference compound]: the blood plasma ratio at 1 h, 1 μM turned out to be 11 ± 3.2 in [1] (human) and 6.2 ± 0.2 in data set [1] (mouse).
For orientation: Papp A→B means how fast a substance crosses the layer from the apical side. A word on the efflux ratio: it is the permeability from basolateral to apical divided by that in the opposite direction, in the common usage. `C[C@H]1O[C@@H](O[C@H]2[C@@H](O)C[C@H](O[C@H]3[C@@H](O)C[C@H](O[C@H]4CC[C@@]5(C)[C@H](CC[C@@H]6[C@@H]5C[C@@H](O)[C@]5(C)[C@@H](C7=CC(=O)OC7)CC[C@]65O)C4)O[C@@H]3C)O[C@@H]2C)C[C@H](O)[C@@H]1O` [Digoxin]: in “in vitro”, the Papp A→B at 2 μM stood at 3.5 ± 0.34 ×10⁻⁶ cm/s and the efflux ratio at 2 μM turned out to be 5 ± 1.5.
Take `NCC1(CC(=O)O)CCCCC1` [Gabapentin, reference compound]: in [2], the “Unbound brain distribution (Vu, brain)” value was found to be 2.20 ± 1.00 mL/g brain.
Consider `CC(C)NCC(O)COc1cccc2ccccc12` (stereo not shown) [Propranolol, reference compound], for which the “f u,plasma %” value was 0.220 ± 0.0200% in [3] and 6.50 ± 0.480% in data set [4]. The compound also displayed a Papp A→B at 1 μM in the data set “in vitro” of 17 ± 1.3 ×10⁻⁶ cm/s.
In turn, `COC(=O)c1ccccc1-c1c2ccc(=N)cc-2oc2cc(N)ccc12` [Rhodamine 123] came in with a Papp A→B at 1 μM in the data set “in vitro” of 0.73 ± 0.02 ×10⁻⁶ cm/s.
Regarding `O=C([O-])c1ccccc1-c1c2ccc(=O)cc-2oc2cc([O-])ccc12.[Na+].[Na+]` [Sodium fluorescein], the “Papp (A-B)” value with Caco-2 cells was 1.40 ± 0.260 (cm/s) × 10-6.
Regarding `CC[C@@]1(O)C(=O)OCc2c1cc1n(c2=O)Cc2cc3c(CN(C)C)c(O)ccc3nc2-1` [Topotecan], in “in vitro”, the Papp A→B at 2 μM came to 1.2 ± 0.09 ×10⁻⁶ cm/s and the efflux ratio at 2 μM worked out at 4.6 ± 1.7.
As to `C[C@]12CC[C@@H]3c4ccc(OS(=O)(=O)O)cc4CC[C@H]3[C@@H]1CCC2=O` [estrone-3-sulfate, reference compound], on OATP2B1, the “uptake ratio of OATP2B1” value is recorded as 13 ± 2.9. For the same compound, the “uptake ratio of OATP1A2” value at OATP1A2 came to 18 ± 3.7.
In the case of `C[C@]12CC[C@@H]3c4ccc(O)cc4CC[C@H]3[C@@H]1CC[C@@H]2O[C@@H]1O[C@H](C(=O)O)[C@@H](O)[C@H](O)[C@H]1O` [β-Estradiol 17-β-D-glucuronide, reference compound], on OATP1B1, the “uptake ratio of OATP1B1” value is 45 ± 7.6. For the same compound, the “uptake ratio of OATP1B3” value at OATP1B3 stood at 10 ± 3.0.

Source of the values: paper PMC5703966, “Systemic clearance and brain distribution of carbazole-based cyanine compounds as Alzheimer’s disease drug candidates” (Scientific Reports, 2017).
